Laboratory results taken from patent publication US9464117B2, “Herbicide-resistant proteins, encoding genes, and uses thereof” (Beijing Dabeinong Technology Group Co., Ltd., priority 2012, dated 2016).

Columns and labels:
Assay type in all cases: in vivo
[1] = system: Arabidopsis T1 plants transformed with 24DT07 nucleotide sequence; experiment: Herbicide resistance effect test of transgenic Arabidopsis T1 plants; details: for differences of resistance levels between Arabidopsis T1 plants transformed with 24DT07, substituted, truncated and added 24DT07 nucleotide sequence: comparison of the four 24DT07 genotypes, 560 g ae/ha; for Highly resistant: 560 g ae/ha sprayed (1-fold field concentration), number of plants with growth consistent with blank solvent 7 days after spraying; for Non-resistant: number of dead plants 14 days after spraying
Description: (§1) 24DT07 gene was used to transform Arabidopsis for the first time. At first, T1 transformants were selected from the background of un-transformed seeds, using glufosinate-ammonium selection scheme. About 40000 T1 seeds are screened among which 195 strains of T1 generation positive transformants (PAT gene) were identified, i.e. the transformation efficiency was about 0.5%. Herbicide resistance effect tests to 2,4-D dimethyl ammonium salt and agroxone of Arabidopsis T1 plants transformed with 24DT07 nucleotide sequence, substituted 24DT07 nucleotide sequence, truncated 24DT07 nucleotide sequence, added 24DT07 nucleotide sequence, control nucleotide sequence respectively and wild-type Arabidopsis plants were performed after 18 days of planting.
(§2) Arabidopsis T1 plants transformed with 24DT07 nucleotide sequence, substituted 24DT07 nucleotide sequence, truncated 24DT07 nucleotide sequence, added 24DT07 nucleotide sequence and control nucleotide sequence respectively and wild-type Arabidopsis plants were sprayed with 2,4-D dimethyl ammonium salt (560 g ae/ha, 1-fold concentration in field), agroxone (560 g ae/ha, 1-fold concentration in field) and blank solvent (water). Resistance conditions of the plants were counted 7 days and 14 days after spraying. Plants with growth conditions consistent with blank solvent (water) 7 days after spaying were classified as highly resistant plants; Plants with curly rosette leaves 7 days after spaying were classified as moderately resistant plants; Plants incapable of bolting 14 days after spaying were classified as low-resistant plants and the dead plants 14 days after spaying were classified as non-resistant plants. Because each Arabidopsis T1 plant is an independent transformation event, significant differences of individual T1 responses can be expected under a given dose.

[2] = system: Arabidopsis T1 plants transformed with added 24DT07 nucleotide sequence; experiment: as above; details: genotype 24DT07-a; for Highly resistant: 560 g ae/ha sprayed (1-fold field concentration), number of plants with growth consistent with blank solvent 7 days after spraying; for Non-resistant: 560 g ae/ha sprayed, number of dead plants 14 days after spraying
Description: as §1, §2

[3] = system: Arabidopsis T1 plants transformed with substituted 24DT07 nucleotide sequence; experiment: as above; details: genotype 24DT07-i; for Highly resistant: 560 g ae/ha sprayed (1-fold field concentration), number of plants with growth consistent with blank solvent 7 days after spraying; for Non-resistant: 560 g ae/ha sprayed, number of dead plants 14 days after spraying
Description: as §1, §2

[4] = system: Arabidopsis T1 plants transformed with truncated 24DT07 nucleotide sequence; experiment: as above; details: genotype 24DT07-t; for Highly resistant: 560 g ae/ha sprayed (1-fold field concentration), number of plants with growth consistent with blank solvent 7 days after spraying; for Non-resistant: 560 g ae/ha sprayed, number of dead plants 14 days after spraying
Description: as §1, §2

[5] = system: maize plants containing 24DT07 nucleotide sequence; experiment: Herbicide-resistance effect test of the transgenic corn plants (prop root development); details: comparison of the four 24DT07 genotypes; 8960 g ae/ha
Method: (§3) Herbicide resistance effects tests to 2,4-D dimethyl ammonium salt and agroxone of maize plants containing 24DT07 nucleotide sequence, 24DT07 substituted nucleotide sequence, 24DT07 truncated nucleotide sequence, 24DT07 added nucleotide sequence, control nucleotide sequence respectively and wild type maize plants (stages V3-V4) were performed respectively.
(§4) Maize plants containing 24DT07 nucleotide sequence, 24DT07 substituted nucleotide sequence, 24DT07 truncated nucleotide sequence, 24DT07 added nucleotide sequence, control nucleotide sequence respectively and wild type maize plants were taken and spayed with 2,4-D dimethyl ammonium salt (8960 g ae/ha, 16-folds concentration in field), agroxone (8960 g ae/ha, 16-folds concentration in field) and blank solvent (water) respectively. Prop root development was counted 21 days after spaying. Three strains (S1, S2, and S3) of corn plants transfected with 24DT07 nucleotide sequence, two strains (S4 and S5) of corn plants transfected with 24DT07 substituted nucleotide sequence, two strains (S6 and S7) of corn plants transfected with 24DT07 truncated nucleotide sequence, two strains (S8 and S9) of corn plants transfected with 24DT07 added nucleotide sequence, two strains (S10 and S11) of corn plants transfected with control nucleotide sequence and 1 strain of wild type (CK) corn were selected and 10-15 plants from each stain were tested.

[6] = system: maize plants containing 24DT07 truncated nucleotide sequence; experiment: as above; details: 8960 g ae/ha sprayed, 21 days after spraying
Method: as §3, §4

[7] = system: maize plants containing 24DT07 substituted nucleotide sequence; experiment: as above; details: corn strain S5 (24DT07 substituted); 8960 g ae/ha sprayed; 21 days after spraying
Method: as §3, §4

[8] = genotype 24DT07, 560 g ae/ha sprayed
[9] = corn strain S7 (24DT07 truncated)

SMILES	differences of resistance levels between Arabidopsis T1 plants transformed with 24DT07, substituted, truncated and added 24DT07 nucleotide sequence [1]	Highly resistant ([1]; genotype 24DT07)	Non-resistant [1, 8]	Highly resistant [2]	Non-resistant [2]	Highly resistant [3]	Non-resistant [3]	Highly resistant [4]	Non-resistant [4]	differences of resistance levels between corn plants transformed with 24DT07, substituted, truncated and added 24DT07 nucleotide sequence [5]	Ratio of the normally developed prop roots ([6]; corn strain S6 (24DT07 truncated))	Ratio of the normally developed prop roots [6, 9]	Moderately resistant ([1]; genotype 24DT07, 560 g ae/ha sprayed, number of plants with curly rosette leaves 7 days after spraying)	Ratio of the normally developed prop roots [7]
CNC.O=C(O)COc1ccc(Cl)cc1Cl [2,4-D dimethyl ammonium salt]	didn't show significant differences	20	0	17	0	18	0	16	0	didn't show significant differences	92.31%	93.33%	–	–
Cc1cc(Cl)ccc1OCC(=O)O [agroxone]	didn't show significant differences	19	0	15	0	17	0	18	0	didn't show significant differences	–	91.67%	3	92.86%
